We go through one compound from ChEMBL document CHEMBL1157997, “A new biologically active acylated triterpene saponin from Silene fortunei” (J Nat Prod, 1999).

Data set [1] is described as follows: Cytotoxicity against human neutrophil granulocytes upto 100 ug/mL.
Data set [2] is described as follows: Enhancement of human neutrophil granulocytes phagocytosis at 10 to 100 ug/mL by flow cytometric analysis. Type of data set: functional. (In general: Flow cytometry measures light scatter and fluorescence of single cells or particles in a stream.)

On to `CC(=O)O[C@@H]1[C@H](O[C@@H]2O[C@H](CO)[C@@H](O)[C@H](O)[C@H]2O)[C@@H](O[C@@H]2O[C@@H](C)[C@H](O[C@@H]3OC[C@@H](O)[C@H](O)[C@H]3O[C@@H]3OC[C@H](O)[C@H](O)[C@H]3O[C@@H]3OC[C@H](O)[C@H](O)[C@H]3O)[C@@H](O)[C@H]2O)[C@H](OC(=O)[C@]23CCC(C)(C)C[C@H]2C2=CC[C@@H]4[C@@]5(C)CC[C@H](O[C@@H]6O[C@H](C(=O)O)[C@@H](O)[C@H](O)[C@H]6O[C@@H]6O[C@H](CO)[C@H](O)[C@H](O)[C@H]6O)[C@@](C)(C=O)C5=CC[C@@]4(C)[C@]2(C)C[C@H]3O)O[C@@H]1C`, for which the Activity result in data set [1] is reported as “Non-toxic”; in data set [2], 24%.
